Reference: patent US10981021B2, “Method for transiently disrupting a region of the blood-brain barrier of a human” (Carthera, priority 2016, dated 2021)
“And” between values parts separate entries of the source, which are not always exact repeats. Identical values can stand only once.

System: recurrent glioblastoma (GBM)
Assay: Clinical trial: monthly ultrasound BBB opening followed by carboplatin in recurrent glioblastoma patients
Description: Patients experiencing recurrence (first, second or third) of a histologically proven de novo glioblastoma (GBM), previously treated with at least the first line standard of care were included (i.e. radiation with concurrent and adjuvant temozolomide). Patients had to have a growing contrast-enhancing tumor of less than 35 mm in diameter and be eligible for carboplatin-based chemotherapy.
The trial was designed as a dose escalation study (Simon et al. 1997) in which the US pressure was increased throughout the study starting at 0.5 and increasing to 1.1 MPa through 5 different “dose” levels (0.50, 0.65, 0.80, 0.95, and 1.1 MPa).
A minimum of three patients were included at each dose level. If none of the patients experienced a dose-limiting toxicity (DLT), the next dose level was opened. If one patient experienced a DLT, three additional patients were enrolled at that dose level.
Patients received US activation and BBB disruption every four weeks. The first treatment was performed at the initial “dose” level for the inclusion group, the second treatment at the next highest dose level, etc. Patients were treated monthly for up to a maximum of six treatments or until there was evidence of tumor progression.
All patients were assessed monthly using MR imaging, blood sampling, and clinical neurological evaluation. Two days prior to each planned ultrasound treatment, tumor status was evaluated on MRI according to the Response Assessment in Neuro-Oncology (RANO) Criteria (Wen et al. 2010). Progression-free survival (PFS) and overall survival (OS) were also assessed. Patients left the study if tumor progression was identified, which defined progression as an increase in tumor size of more than 25% or an increase in T2/FLAIR or as a neurological status degradation (Wen et al. 2010).
In the absence of tumor progression and significant toxicity, the BBB opening session followed by carboplatin injection was scheduled two days after. […]
Carboplatin dose (AUC, area under the curve) administration was calculated based on the Calvert formula taking into account renal function. […]

[1] = per patient, recurrent GBM, monthly US (0.5-1.1 MPa) + SonoVue BBB opening followed by i.v. carboplatin AUC 4-6

N.N.O=C([O-])C1(C(=O)[O-])CCC1.[Pt+2] [Carboplatin]
cerebral carboplatin-related toxicity (GBM patients, carboplatin perfusion started within 60 minutes after US BBB opening): No cerebral carboplatin-related toxicity was observed | Duration on-study [1]: 3 months (4×) and 2 months (6×) and 2.5 months and >5 months and >4 months and 4 months and still on study | Tumor Progression (MRI, FLAIR/ T1Gd) in the acoustic [1]: Yes (5×) and No (9×) and slight
